The results in this text go back to patent US8389524B2, “Tricyclic nitrogen containing compounds as antibacterial agents” (Glaxo Group Limited, priority 2007, dated 2013).

Experiment [1] in a line: Antimicrobial Activity Assay: whole-cell antimicrobial activity by broth microdilution (CLSI M7-A7), MIC. It counts as cell-based, Gram-positive and Gram-negative organisms. Particulars: against a strain of at least one of the organisms listed; tested in at least one exemplified salt or free base form. How it is done:
Whole-cell antimicrobial activity was determined by broth microdilution using the Clinical and Laboratory Standards Institute (CLSI) recommended procedure, Document M7-A7, “Methods for Dilution Susceptibility Tests for Bacteria that Grow Aerobically”. The compounds were tested in serial two-fold dilutions ranging from 0.016 to 16 mcg/ml.
The minimum inhibitory concentration (MIC) was determined as the lowest concentration of compound that inhibited visible growth. A mirror reader was used to assist in determining the MIC endpoint.
Compounds were evaluated against Gram-positive organisms, selected from Staphylococcus aureus, Streptococcus pneumoniae, Streptococcus pyogenes, Enterococcus faecalis and Enterococcus faecium.
In addition, compounds were evaluated against Gram-negative organisms selected from Haemophilus influenzae, Moraxella catarrhalis, Escherichia coli, Pseudomonas aeruginosa, Proteus mirabilis, Enterobacter cloacae, Enterobacter aerogenes, Klebsiella pneumoniae and Stenotrophomonas maltophilia.

For experiment [2], the system named is Mycobacterium tuberculosis H37Rv. The experiment is described as follows: Mycobacterium tuberculosis H37Rv Inhibition Assay (resazurin, MIC). It counts as cell-based. Particulars: ATCC 25618 / H37Rv, 144 h. (In general: The colour change of resazurin is a common sign of viable cells or microbes.)
Where [3] appears, read: H37Rv strain (ATCC25618), Middlebrook 7H9+ADC, six days at 37° C., resazurin fluorescence after 48 hours, read-out: MIC value.
The mark [4] stands for this setting: read-out: MIC value, H37Rv strain (ATCC25618), Middlebrook 7H9+ADC, six days at 37° C., resazurin fluorescence after 48 hours.

The structures appear in SMILES notation. Where a name gives a salt, the structure may show the parent alone. Read-outs that look alike come from different tables or passages of the source.

In general, MIC refers to the least concentration at which growth counts as inhibited.

Regarding `O=c1ccc2ccc(=O)n3c2n1C[C@H]3CN1CCC(NCc2cc3c(cn2)COC3)CC1` [Example 9, (1R)-1-({4-[(1,3-Dihydrofuro[3,4-c]pyridin-6-ylmethyl)amino]-1-piperidinyl}methyl)-1,2-dihydro-4H,1H-imidazo[1,2,3-ij]-1,8-naphthyridine-4,9-dione hydrochloride], in experiment [1], the minimum inhibitory concentration (MIC) was not above 4 µg/mL.
In the case of `CC1(NCc2cc3c(cn2)OCS3)CCN(C[C@@H]2Cn3c(=O)ccc4ccc(=O)n2c43)CC1` [Example 24, (1R)-1-({4-Methyl-4-[([1,3]oxathiolo[5,4-c]pyridin-6-ylmethyl)amino]-1-piperidinyl}methyl)-1,2-dihydro-4H,9H-imidazo[1,2,3-ij]-1,8-naphthyridine-4,9-dione hydrochloride], in experiment [2] (setting [3]), the MIC is less than 2 µg/mL.
Turning to `O=c1cnc2ccc(=O)n3c2n1C[C@H]3CN1CCC(NCc2cc3c(cn2)OCCS3)CC1` [Example 14, (1R)-1-({4-[(2,3-Dihydro-[1,4]oxathiino[2,3-c]pyridin-7-ylmethyl)amino]-1-piperidinyl}methyl)-1,2-dihydro-3H,8H-2a,5,8a-triazaacenaphthylene-3,8-dione hydrochloride], the MIC in experiment [2] (setting [4]) is less than 2 µg/mL.
On to `N#Cc1cc(CNC2CCN(C[C@@H]3Cn4c(=O)cnc5ccc(=O)n3c54)CC2)cc2c1OCCO2` [Example 56, 7-{[(1-{[(1R)-3,8-Dioxo-1,2-dihydro-3H,8H-2a,5,8a-triazaacenaphthylen-1-yl]methyl}-4-piperidinyl)amino]methyl}-2,3-dihydro-1,4-benzodioxin-5-carbonitrile hydrochloride], for which the MIC in experiment [2] (setting [4]) was less than 2 µg/mL.
With `O=c1ccc2ccc(=O)n3c2n1C[C@H]3CN1CCC(NCc2cc(F)c3c(c2)OCCO3)CC1` [Example 31, (1R)-1-[(4-{[(8-Fluoro-2,3-dihydro-1,4-benzodioxin-6-yl)methyl]amino}-1-piperidinyl)methyl]-1,2-dihydro-4H,9H-imidazo[1,2,3-ij]-1,8-naphthyridine-4,9-dione hydrochloride], the minimum inhibitory concentration (MIC) in experiment [2] (setting [3]) is less than 2 µg/mL.
